Consider three molecules from US20160039936A1, “FIBROBLAST GROWTH FACTOR RECEPTOR INHIBITION FOR THE TREATMENT OF DISEASE” (UNIVERSITY OF MIAMI, priority 2011, published 2016).

In assay [1] the test system is isolated neonatal rat ventricular cardiac myocytes (NRVM). Briefly: Surface area (hypertrophy) of isolated NRVM, immunocytochemistry and morphometry (Examples 1-2). Conditions: for cell surface area: 48 h incubation with the FGF alone. Type of assay: cell-based. As to the method:
(§1) NRVM were isolated using a standard isolation system (Worthington Biochemical Corporation) (Toraason et al., Toxicology, 56(1):107-117, 1989). Hearts from 1-2 day old Sprague Dawley rats (Charles River) were harvested, minced in calcium- and magnesium-free Hank's Balanced Salt Solution (HBSS), and the tissue digested with 50 μg/ml trypsin at 4° C. for 20-24 hours. Soybean trypsin inhibitor in HBSS was added and the tissue was further digested with collagenase (in Leibovitz L-15 medium) under slow rotation (15 rpm) at 37° C. for 45 minutes. Cells were released by gently triturating the suspension 20 times with a standard 10 ml plastic serological pipette and filtering it twice through a cell strainer (70 μm, BD Falcon). Cells were incubated at room temperature for 20 minutes and spun at 100 g for 5 minutes. The cell pellet was resuspended in plating medium [Dulbecco's Modified Eagle Medium (DMEM; Cellgro) with 17% Media 199 (Invitrogen), 15% fetal bovine serum (FBS; Invitrogen) and 1% penicillin/streptomycin solution (P/S; Invitrogen)]. Cells were counted using a hemocytometer.
Cells were plated on glass and plastic surfaces which were coated with laminin (Invitrogen; 10μg/ml in PBS) at room temperature for 1 hour prior to plating. For immunofluorescence analysis, 1×10^6 cells were seeded per well on glass coverslips in 6-well plates. For protein and RNA isolation, 2×10^6 cells were seeded in 6 cm-culture dishes. Cells were left undisturbed in plating medium at 37° C. for 72 hours and then cultured in maintenance medium (DMEM with 20% Media 199, 1% insulin-transferrin-sodium selenite solution (ITS; Sigma-Aldrich) and 1% P/S) in the presence of 100 μM 5-bromo-2′-deoxyuridine (BrdU; Sigam-Aldrich) to eliminate proliferating non-myocytes resulting in a relatively pure population of isolated cardiac myocytes (Bishopric et al., 1987). After 4 days, isolated cardiac myocytes were cultured in BrdU-containing maintenance medium in the presence of recombinant murine FGF23 (26.1 kDa, 251 amino acids; R&D Systems) or FGF2 (16.2 kDa, 144 amino acids; R&D Systems) for 48 hours.
We analyzed isolated NRVM on laminin-coated glass coverslips by immunocytochemsitry according to our established protocols (Faul et al., Cell Biol., 169(3):415-424, 2005; Faul et al., Cell Biol., 27(23):8215-8227, 2007). The mouse monoclonal antibody against sarcomeric α-actinin (EA-53; Sigma-Aldrich) was used at 1:1000 and Cy3-conjugated goat-anti mouse (Jackson Immuno Research) as secondary antibody at 1:750. To visualize nuclei, fixed cells were incubated with 4′,6-diamidino-2-phenylindole (DAPI; 400 ng/ml in PBS) for 5 minutes. Immunofluorescence images were taken on a Leica TCS-SP5 confocal microscope with a 63× oil objective with a 1.6× zoom. Leica AF6000 fluorescence software was used to measure the cell surface area based on α-actinin-positive staining.
To assess the signaling pathways involved in FGF23- and FGF2-mediated hypertrophy, we analyzed the morphometry of plated cells that were pre-treated with specific inhibitors for 60 minutes prior to the addition of the FGFs at varying concentrations.

Assay [2] concerns isolated NRVM. Nature of the assay: Cross-sectional area (hypertrophy) of isolated NRVM with receptor antagonists (Example 4). Type of assay: cell-based, rat. Particulars: for cross-sectional area of isolated NRVM: 48 h, FGF alone 25 ng/ml vs PBS. How it is done: as §1, with “(Faul” for “(Toraason”, “2011).” for “Toxicology, 56(1):107-117, 1989).”, “rats” for “rats (Charles River)”, “calcium-and” for “calcium- and”, “added,” for “added”, “by” for “by gently”
Cells were plated on glass and plastic surfaces, which were coated with laminin (Invitrogen; 10 μg/ml in PBS) at room temperature for 1 hour prior to plating. For immunofluorescence analysis, 3×10^5 cells were seeded per well on glass coverslips in 24-well plates. For Western blot or qPCR analyses of total extracts, 1×10^6 cells were seeded per well in 6-well plates, and for immunoprecipitation assays, 5×10^6 cells were seeded in 10 cm-culture dishes. Cells were left undisturbed in plating medium at 37° C. for 72 hours and then cultured in maintenance medium (DMEM with 20% Media 199, 1% insulin-transferrin-sodium selenite solution [ITS; Sigma-Aldrich] and 1% P/S) in the presence of 100 μM 5-bromo-2′-deoxyuridine (BrdU; Sigam-Aldrich). After 4 days, isolated cardiac myocytes were cultured in BrdU-containing maintenance medium in the presence of recombinant murine FGF23 or FGF2 (both at 25 ng/ml) for different time points.
Cultured cells were fixed in 2% PFA (in 5 mg/ml sucrose) for 5 minutes and permeabilized in 1% Triton X-100 (in PBS) for 10 minutes. We analyzed hypertrophic growth of isolated NRVM and NMVM on laminin-coated glass coverslips after 48 hours of treatment with growth factors. For FGFR4 expression and localization analyses, untreated NMVM from wild-type and FGFR4^−/− mice were immunolabeled. The mouse monoclonal antibody against sarcomeric α-actinin (EA-53; Sigma-Aldrich) was used at 1:1,000, and rabbit polyclonal anti-FGFR4 (C-16; Santa Cruz) at 1:50. Cy3-conjugated goat-anti mouse and Alexa488-conjugated goat-anti rabbit (Jackson Immuno Research) were used as secondary antibodies at 1:300. To visualize nuclei, fixed cells were incubated with 4′,6-diamidino-2-phenylindole (DAPI; 400 ng/ml in PBS) for 10 minutes. Immunofluorescence images were taken on a Leica TCS-SP5 confocal microscope with a 63× oil objective.
Myocyte cross-sectional area was measured based on α-actinin-positive staining using Leica AF6000 fluorescence software. To assess the signaling pathways involved in FGF23- and FGF2-mediated hypertrophy, we analyzed the morphometry of plated cells that were pre-treated with specific inhibitors for 60 minutes prior to the addition of the FGFs at 25 ng/ml (NRVMs) or at 100 ng/ml (NMVMs). The following inhibitors and concentrations were used: pan-FGFR, PD173074 (Sigma-Aldrich) at 10 nM; FGFR1-3, AZD4547 (ChemieTek) at 5 nM; and FGFR4 blocking antibody (human monoclonal, U3-11; U3Pharma) at 10 μg/ml.

On to `CCN(CC)CCCCNc1ncc2cc(-c3cc(OC)cc(OC)c3)c(NC(=O)NC(C)(C)C)nc2n1` [PD173074], for which the “FGF2-induced increase in cell surface area (hypertrophy) in presence of inhibitor” value in assay [1] (48 h FGF2, inhibitor pre-treated 60 min at Table 2 concentration) is “completely blocked”. Further, the “FGF23-induced increase in cell surface area (hypertrophy) in presence of inhibitor” value in assay [1] (48 h FGF23, inhibitor pre-treated 60 min at Table 2 concentration) is reported as “completely blocked”. Further, the “FGF2-induced hypertrophy (cross-sectional area) with receptor antagonist” value in assay [2] (NRVM 48 h, FGF2 25 ng/ml, PD173074 10 nM, AZD4547 5 nM, anti-FGFR4 10 μg/ml) was “inhibited”. Further, the “FGF23-induced hypertrophy (cross-sectional area) with receptor antagonist” value in assay [2] (NRVM 48 h, FGF23 25 ng/ml, PD173074 10 nM, AZD4547 5 nM, anti-FGFR4 10 μg/ml) is “inhibited”.

B1: FGF23: recombinant mouse FGF23, 6His-tagged Tyr25-Val251 (Arg179Gln) (R&D Systems) (protein)
chain: YPDTSPLLGSNWGSLTHLYTATARTSYHLQIHRDGHVDGTPHQTIYSALMITSEDAGSVVITGAMTRRFLCMDLHGNIFGSLHFSPENCKFRQWTLENGYDVYLSQKHHYLVSLGRAKRIFQPGTNPPPFSQFLARRNEVPLLHFYTVRPRRHTQSAEDPPERDPLNVLKPRPRATPVPVSCSRELPSAEEGGPAASDPLGVLRRGRGDARGGAGGADRCRPFPRFV
modifications: left off: small tags and cut ends
As to B1, the cell surface area result in assay [1] is listed as “significant increase”. For the same molecule, the “cross-sectional area of isolated NRVM” value in assay [2] was “significantly increases”.

B2: FGF2: recombinant mouse FGF2 (Ala11-Ser154) (R&D Systems) (protein)
chain: ALPEDGGAAFPPGHFKDPKRLYCKNGGFFLRIHPDGRVDGVREKSDPHVKLQLQAEERGVVSIKGVCANRYLAMKEDGRLLASKCVTEECFFFERLESNNYNTYRSRKYSSWYVALKRTGQYKLGSKTGPGQKAILFLPMSAKS
As for B2, the cell surface area entry in assay [1] was “significant increase”. In addition, the “cross-sectional area of isolated NRVM” value in assay [2] is listed as “significantly increases”.
